Converted amounts (≈) assume the structure as drawn. Like-named read-outs stand apart in the source and are kept apart here.

These results are taken from patent publication US11918013B2, “Composition for inactivation of gram-positive bacteria and bacterial spores and methods of making and using same” (RESORCIX LTD., priority 2018, dated 2024).

For this test, the system named is Alicyclobacillus acidoterrestris (JCM catalogue number 21547, IAM Culture Collection no. 15086). The test can be described thus: MIC against Alicyclobacillus acidoterrestris in apple juice (OD600 and CFU counting). Particulars: 37° C.; for MIC: Alicyclobacillus acidoterrestris, 100% apple juice. The test is classed as cell-based. The method, then: The fractions collected in Example 4, as well as Fraction 1 and nisin, a preservative presently in common use in the industry, were tested for activity by incubating for the times indicated in the table below with Alicyclobacillus acidoterrestris (JCM catalogue number 21547, IAM Culture Collection no. 15086) in apple juice. The minimum inhibitory concentration (MIC) was determined by optical density measurements at 600 nm, and by counting colony forming units (CFU) as follows: after four days of incubation at 37° C., juice samples were serially diluted in 10-fold increments (10-fold, 100-fold, 1000-fold, etc.) and plated on Potato Dextrose Agar (PDA). Plates were incubated at 45° C. for at least 48 hours, and colonies were counted to determine CFU/ml.

Setting [1] is: 48 h, 2 days of incubation, read-out: MIC (μg/ml) in 100% apple juice 2 days of incubation.
Where [2] appears, read: 72 h, 3 days of incubation, read-out: MIC (μg/ml) in 100% apple juice 3 days of incubation.
Where [3] appears, read: 120 h, 5 days of incubation, read-out: MIC (μg/ml) in 100% apple juice 5 days of incubation.
The mark [4] stands for this setting: 168 h, 7 days of incubation, read-out: MIC (μg/ml) in 100% apple juice 7 days of incubation.

In the case of `C=C1CC[C@@H]2C(C)(C)CCC[C@@]2(C)[C@@H]1CC/C(C)=C/C(=O)O` (single isomer, unassigned) [Sample 7, copalic acid], the MIC reads like this: under setting [1], 1.25 µg/mL (≈ 4.11 µM); under setting [2], 1.25 µg/mL (≈ 4.11 µM); under setting [3], 1.25 µg/mL (≈ 4.11 µM); under setting [4], 1.25 µg/mL (≈ 4.11 µM).
With `CC1=CCC[C@@H]2[C@@](C)(CC/C(C)=C/C(=O)O)[C@H](C)CC[C@@]12C` (single isomer, unassigned) [Sample 6, Kolavenic acid], the MIC is, setting by setting: under setting [1], 1.25 µg/mL (≈ 4.11 µM); under setting [2], 1.25 µg/mL (≈ 4.11 µM); under setting [3], 1.25 µg/mL (≈ 4.11 µM); under setting [4], 1.25 µg/mL (≈ 4.11 µM).
In the case of `CC(=O)OC1CC2(C)C(C(=O)O)=CCCC2C(C)(CCc2ccoc2)C1C` (stereo not drawn) [Sample 3, 7-α-acetoxyhardwickiic acid], the “MIC (μg/ml) in 100% apple juice 2 days of incubation” value (2 days of incubation) was determined as 2.5 µg/mL. The “MIC (μg/ml) in 100% apple juice 3 days of incubation” value (3 days of incubation) is 5 µg/mL. For the same compound, the “MIC (μg/ml) in 100% apple juice 5 days of incubation” value (5 days of incubation) amounted to 5 µg/mL. Moreover, for the setting “7 days of incubation”, the “MIC (μg/ml) in 100% apple juice 7 days of incubation” value is 5 µg/mL.
